Assays:
Assay type in all cases: cell-based
[1] = target: T1, SMARCA2 (Homo sapiens, UniProt P51531); experiment: MSD SMARCA2 degradation in A549 cell line; details: for Dmax: A549, A549 cells; for Dmax / DC50: 24 h; for DC50 / SMARCA2 MSD A549 degradation 24 h: Average Dmax %: A549 cells; for DC50: read-out: SMARCA2 MSD A549 degradation 24 h: Average external-Abs DC50
Outline: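 SMARCA2 protein remaining after 24 h exposure of A549 cells (top concentration 1000 nM, 3-fold dilutions) was measured by MSD electrochemiluminescence immunoassay of cell lysates. Results are given as binned DC50 and maximal degradation (Dmax) codes.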

[2] = target: T2, SMARCA4 (Homo sapiens, UniProt P51532); experiment: SMARCA4 Western blot degradation in MV4-11 cells; details: for Dmax: MV4-11, MV4-11 cells, read-out: SMARCA4 MSD MV411 degradation 24 h: average Dmax %; for Dmax / DC50: 24 h; for DC50 / SMARCA4 MSD MV411 degradation 24 h: average Dmax %: MV4-11 cells; for DC50: read-out: SMARCA4 MSD MV411 degradation 24 h: Mean external-Abs DC50
T2 construct: SMARCA2/SMARCA4 protein degradation selectivity in MV4-11 cells; endogenous in cells; host or cells: MV4-11
Outline: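 Protein levels quantified by LI-COR Western blot (beta-actin loading control) in RIPA lysates of MV4-11 cells after 24 h compound exposure. Degradation reported as DC50, Dmax % at 24 h and SMARCA2 vs SMARCA4 selectivity, each binned into letter codes.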

[3] = target: T1, SMARCA2; experiment: SMARCA2 Western blot degradation in MV4-11 cells; parameters: SMARCA2/SMARCA4 protein degradation selectivity in MV4-11 cells; endogenous in cells; host or cells: MV4-11; details: for Dmax: MV4-11, MV4-11 cells, read-out: SMARCA2 MSD MV411 degradation 24 h: average Dmax %; for Dmax / DC50 / SMARCA2 MSD MV411 degradation 24 h: average Dmax %: 24 h; for DC50 / Selectivity in MV411 / SMARCA2 MSD MV411 degradation 24 h: average Dmax %: MV4-11 cells; for DC50: read-out: SMARCA2 MSD MV411 degradation 24 h: Mean external-Abs DC50; for Selectivity in MV411: SMARCA2/4 selectivity

T2 sequence (P51532 whole entry): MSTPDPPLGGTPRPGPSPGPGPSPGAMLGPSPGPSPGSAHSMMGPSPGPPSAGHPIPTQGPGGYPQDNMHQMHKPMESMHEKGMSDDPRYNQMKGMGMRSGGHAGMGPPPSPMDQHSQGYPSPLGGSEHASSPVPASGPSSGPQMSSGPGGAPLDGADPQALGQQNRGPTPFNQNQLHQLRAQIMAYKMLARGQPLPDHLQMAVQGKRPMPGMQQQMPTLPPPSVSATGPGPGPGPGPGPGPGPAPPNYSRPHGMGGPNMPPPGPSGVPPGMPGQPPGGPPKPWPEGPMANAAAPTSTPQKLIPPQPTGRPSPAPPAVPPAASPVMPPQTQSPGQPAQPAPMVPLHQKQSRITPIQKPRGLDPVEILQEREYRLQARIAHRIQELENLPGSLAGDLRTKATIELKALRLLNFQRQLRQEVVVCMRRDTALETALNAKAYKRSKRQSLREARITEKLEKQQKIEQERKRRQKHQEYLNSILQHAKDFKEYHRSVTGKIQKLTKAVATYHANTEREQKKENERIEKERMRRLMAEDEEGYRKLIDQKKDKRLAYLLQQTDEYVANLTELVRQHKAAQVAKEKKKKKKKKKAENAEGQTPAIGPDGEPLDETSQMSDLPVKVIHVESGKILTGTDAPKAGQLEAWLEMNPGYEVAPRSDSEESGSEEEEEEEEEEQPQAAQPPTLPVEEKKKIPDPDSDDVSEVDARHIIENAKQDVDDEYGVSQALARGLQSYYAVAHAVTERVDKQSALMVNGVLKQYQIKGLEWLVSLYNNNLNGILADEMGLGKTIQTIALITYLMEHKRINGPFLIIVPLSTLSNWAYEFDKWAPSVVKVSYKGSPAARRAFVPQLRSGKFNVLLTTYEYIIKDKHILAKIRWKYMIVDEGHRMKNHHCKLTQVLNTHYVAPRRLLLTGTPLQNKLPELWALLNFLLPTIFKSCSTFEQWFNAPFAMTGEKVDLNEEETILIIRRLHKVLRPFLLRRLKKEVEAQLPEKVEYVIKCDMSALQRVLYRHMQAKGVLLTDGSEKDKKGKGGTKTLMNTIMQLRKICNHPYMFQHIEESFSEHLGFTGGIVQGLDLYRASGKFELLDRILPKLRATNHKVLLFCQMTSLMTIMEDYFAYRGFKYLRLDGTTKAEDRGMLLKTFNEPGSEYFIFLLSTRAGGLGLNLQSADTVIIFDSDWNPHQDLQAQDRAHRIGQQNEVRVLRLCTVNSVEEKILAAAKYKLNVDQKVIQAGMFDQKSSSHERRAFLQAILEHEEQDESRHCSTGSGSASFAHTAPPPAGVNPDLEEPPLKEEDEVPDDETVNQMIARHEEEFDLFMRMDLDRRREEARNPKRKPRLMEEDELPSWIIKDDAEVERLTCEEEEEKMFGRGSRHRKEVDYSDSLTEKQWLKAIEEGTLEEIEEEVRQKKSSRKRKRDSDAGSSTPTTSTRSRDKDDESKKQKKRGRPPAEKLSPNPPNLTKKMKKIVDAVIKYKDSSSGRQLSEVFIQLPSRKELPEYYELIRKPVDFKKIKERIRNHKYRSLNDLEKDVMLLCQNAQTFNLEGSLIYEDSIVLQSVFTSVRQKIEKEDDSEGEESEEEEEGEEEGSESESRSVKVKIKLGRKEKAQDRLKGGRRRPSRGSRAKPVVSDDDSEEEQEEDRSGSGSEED
T1 sequence (P51531 whole entry): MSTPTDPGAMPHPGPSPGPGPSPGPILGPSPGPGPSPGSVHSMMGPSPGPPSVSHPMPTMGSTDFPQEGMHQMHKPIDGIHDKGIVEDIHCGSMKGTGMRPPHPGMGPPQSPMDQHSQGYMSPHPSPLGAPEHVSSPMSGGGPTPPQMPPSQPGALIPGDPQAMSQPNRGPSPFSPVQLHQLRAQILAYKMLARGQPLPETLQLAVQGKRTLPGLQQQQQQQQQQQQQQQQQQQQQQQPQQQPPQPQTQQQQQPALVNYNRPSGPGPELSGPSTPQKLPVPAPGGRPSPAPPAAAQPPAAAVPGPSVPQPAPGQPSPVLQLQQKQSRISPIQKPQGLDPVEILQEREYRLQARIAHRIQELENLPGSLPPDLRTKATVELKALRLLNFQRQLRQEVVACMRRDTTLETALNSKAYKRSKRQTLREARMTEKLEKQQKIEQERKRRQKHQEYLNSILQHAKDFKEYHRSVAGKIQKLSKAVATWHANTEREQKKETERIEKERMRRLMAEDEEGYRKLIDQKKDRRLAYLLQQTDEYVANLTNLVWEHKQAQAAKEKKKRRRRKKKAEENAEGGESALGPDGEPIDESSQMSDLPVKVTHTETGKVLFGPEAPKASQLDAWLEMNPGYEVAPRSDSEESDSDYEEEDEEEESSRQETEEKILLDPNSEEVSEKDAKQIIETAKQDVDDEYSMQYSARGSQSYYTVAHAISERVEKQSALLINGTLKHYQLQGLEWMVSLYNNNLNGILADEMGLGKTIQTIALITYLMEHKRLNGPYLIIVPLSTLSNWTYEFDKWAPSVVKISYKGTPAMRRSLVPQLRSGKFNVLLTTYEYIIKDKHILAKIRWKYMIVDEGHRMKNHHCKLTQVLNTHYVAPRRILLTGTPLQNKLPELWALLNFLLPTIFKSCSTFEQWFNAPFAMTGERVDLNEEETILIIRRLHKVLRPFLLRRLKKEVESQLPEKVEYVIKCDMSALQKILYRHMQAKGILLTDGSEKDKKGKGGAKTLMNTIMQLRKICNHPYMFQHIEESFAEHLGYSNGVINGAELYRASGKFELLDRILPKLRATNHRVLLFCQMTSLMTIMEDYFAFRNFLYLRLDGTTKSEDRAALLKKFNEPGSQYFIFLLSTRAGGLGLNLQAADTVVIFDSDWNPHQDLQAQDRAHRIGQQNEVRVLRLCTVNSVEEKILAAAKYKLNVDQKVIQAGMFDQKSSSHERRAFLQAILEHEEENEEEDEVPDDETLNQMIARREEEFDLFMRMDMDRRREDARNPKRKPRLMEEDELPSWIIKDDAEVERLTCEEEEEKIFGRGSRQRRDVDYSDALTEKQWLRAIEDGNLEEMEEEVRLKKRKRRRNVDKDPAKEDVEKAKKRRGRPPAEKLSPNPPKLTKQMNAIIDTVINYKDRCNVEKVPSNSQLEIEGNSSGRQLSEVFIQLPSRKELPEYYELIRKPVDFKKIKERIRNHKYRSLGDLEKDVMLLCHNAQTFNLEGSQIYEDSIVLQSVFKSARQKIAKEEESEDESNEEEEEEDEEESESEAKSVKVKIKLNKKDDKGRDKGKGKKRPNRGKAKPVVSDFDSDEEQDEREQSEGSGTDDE

Compound | Dmax [1] | DC50 [1] | Dmax [2] | DC50 [2] | Dmax [3] | DC50 [3] | Selectivity in MV411 [3] | SMARCA2 MSD A549 degradation 24 h: Average Dmax % [1] | SMARCA4 MSD MV411 degradation 24 h: average Dmax % [2] | SMARCA2 MSD MV411 degradation 24 h: average Dmax % [3]
C#Cc1ccc(CNC(=O)[C@@H]2C[C@@H](O)CN2C(=O)[C@@H](NC(=O)N2CCC[C@@H](CN3CCC(N4CCC(N5CCN6c7cc(-c8ccccc8O)nnc7NC[C@H]6C5)CC4)CC3)C2)C(C)(C)C)cc1 (single isomer, unassigned) [I-253] | < 50% | > 100 nM | < 50% | > 100 nM | < 50% | > 100 nM | D (D (<10 fold)) |  |  | 
C#Cc1ccc(CNC(=O)[C@@H]2C[C@@H](O)CN2C(=O)[C@@H](NC(=O)N2CC3(CC(N4CCC(c5cnc(N6CCc7[nH]c8nnc(-c9ccccc9O)cc8c7[C@H]6C)nc5)CC4)C3)C2)C(C)(C)CCOCC(=O)O)cc1 (single isomer, unassigned) [I-262] | 50 to 70% | > 100 nM | 50 to 70% | > 100 nM | 70 to 90% | 10 to 100 nM | C (C (10-100 fold)) |  |  | 
C#Cc1ccc(CNC(=O)[C@@H]2C[C@@H](O)CN2C(=O)[C@H](NC(=O)N2CC3(CC(N4CCC(c5cnc(N6CCc7[nH]c8nnc(-c9ccccc9O)cc8c7[C@H]6C)nc5)CC4)C3)C2)C(C)(C)CCOCC(=O)O)cc1 (single isomer, unassigned) [I-263] | < 50% | > 100 nM | < 50% | > 100 nM | < 50% | > 100 nM | C (C (10-100 fold)) |  |  | 
C#Cc1ccc([C@H](C)NC(=O)[C@@H]2C[C@@H](O)CN2C(=O)[C@H](c2cc(OCCN3CCN4c5cc(-c6ccccc6O)nnc5NC[C@H]4C3)no2)C(C)C)cc1 (single isomer, unassigned) [I-272] | 50 to 70% | > 100 nM | < 50% | > 100 nM | 50 to 70% | > 100 nM | C (C (10-100 fold)) |  |  | 
C#Cc1ccc([C@H](C)NC(=O)[C@@H]2C[C@@H](O)CN2C(=O)[C@@H](c2cc(OCCN3CCN4c5cc(-c6ccccc6O)nnc5NC[C@H]4C3)no2)C(C)C)cc1 (single isomer, unassigned) [I-273] | > 90% | > 100 nM | 50 to 70% | > 100 nM | > 90% | 1 to 10 nM | C (C (10-100 fold)) |  |  | 
C#Cc1ccc(CNC(=O)[C@@H]2C[C@@H](O)CN2C(=O)[C@@H](NC(=O)[C@H]2CC3(CC[C@H](N4CCN(c5cnc(N6CCc7[nH]c8nnc(-c9ccccc9O)cc8c7[C@H]6C)nc5)CC4)CC3)C2)C(C)(C)C)cc1 (single isomer, unassigned) [I-285] | > 90% | 10 to 50 nM | 70 to 90% | > 100 nM | 70 to 90% | 10 to 100 nM | C (C (10-100 fold)) |  |  | 
C#Cc1cnc(CNC(=O)[C@@H]2C[C@@H](O)CN2C(=O)[C@@H](NC(=O)[C@H]2CCC3(CC2)C[C@H](N2CCC(c4cnc(N5CCN6c7cc(-c8ccccc8O)nnc7NC[C@H]6C5)nc4)CC2)C3)C(C)(C)C)c(OC)c1 (single isomer, unassigned) [I-286] | 50 to 70% | > 100 nM | < 50% | > 100 nM | < 50% | > 100 nM | D (D (<10 fold)) |  |  | 
C#Cc1ccc(CNC(=O)[C@@H]2C[C@@H](O)CN2C(=O)[C@@H](NC(=O)[C@H]2CCC3(CC2)C[C@H](N2CCN(c4cnc(N5CCN6c7cc(-c8ccccc8O)nnc7NC[C@H]6C5)nc4)CC2)C3)C(C)(C)CCO)cc1 (single isomer, unassigned) [I-287] | > 90% | < 10 nM | 50 to 70% | > 100 nM | 70 to 90% | 1 to 10 nM | A (A (>500 fold)) |  |  | 
C#Cc1cnc(CNC(=O)[C@@H]2C[C@@H](O)CN2C(=O)[C@@H](NC(=O)[C@H]2CCC3(CC2)C[C@H](N2CCC(c4cnc(N5CCN6c7cc(-c8ccccc8O)nnc7NC[C@H]6C5)nc4)CC2)C3)C(C)(C)C)c(OC)c1 (single isomer, unassigned) [I-298] |  | 10 to 50 nM |  | > 100 nM |  | > 100 nM | D (D (<10 fold)) | B (B (>70-90% degradation)) | D (D (<50% degradation)) | D (D (<50% degradation))
C#Cc1ccc(CNC(=O)[C@@H]2C[C@@H](O)CN2C(=O)[C@@H](NC(=O)[C@H]2CCC3(CC2)C[C@H](N2CCN(c4cnc(N5CCN6c7cc(-c8ccccc8O)nnc7NC[C@H]6C5)nc4)CC2)C3)C(C)(C)CCO)cc1 (single isomer, unassigned) [I-299] |  | < 10 nM |  | > 100 nM |  | 1 to 10 nM | C (C (10-100 fold)) | A (A (>90% degradation)) | C (C (50-70% degradation)) | B (B (>70-90% degradation))
C#Cc1ccc(CNC(=O)[C@@H]2C[C@@H](O)CN2C(=O)[C@@H](NC(=O)[C@H]2CC3(CC[C@H](N4CCN(c5cnc(N6CCc7[nH]c8nnc(-c9ccccc9O)cc8c7[C@H]6C)nc5)CC4)CC3)C2)C(C)(C)C)cc1 (single isomer, unassigned) [I-300] |  | > 100 nM |  | > 100 nM |  | 10 to 100 nM | C (C (10-100 fold)) | A (A (>90% degradation)) | D (D (<50% degradation)) | B (B (>70-90% degradation))
C#Cc1ccc(CNC(=O)[C@@H]2C[C@@H](O)CN2C(=O)[C@@H](NC(=O)[C@H]2CC3(C2)C[C@H](c2cnc(N4CCC(N5CCN6c7cc(-c8ccccc8O)nnc7NC[C@H]6C5)CC4)nc2)C3)C(C)(C)C)cc1 (single isomer, unassigned) [I-301] | > 90% | 10 to 50 nM | > 90% | 10 to 100 nM | > 90% | 1 to 10 nM | C (C (10-100 fold)) |  |  | 
C#Cc1ccc([C@H](CO)NC(=O)[C@@H]2C[C@@H](O)CN2C(=O)[C@@H](NC(=O)N2CC3(CC(N4CCC(c5cnc(N6CCc7[nH]c8nnc(-c9ccccc9O)cc8c7[C@H]6C)nc5)CC4)C3)C2)C(C)(C)C)nc1 (single isomer, unassigned) [I-304] | > 90% | 50 to 100 nM | < 50% | > 100 nM | 70 to 90% | 1 to 10 nM | B (B (>100-500 fold)) |  |  | 
C#Cc1ccc(CNC(=O)[C@@H]2C[C@@H](O)CN2C(=O)[C@H](NC(=O)[C@H]2CCC3(CC2)C[C@H](N2CCN(c4cnc(N5CCN6c7cc(-c8ccccc8O)nnc7NC[C@H]6C5)nc4)CC2)C3)C(C)(C)CCO)c(Cl)c1 (single isomer, unassigned) [I-306] | < 50% | > 100 nM | < 50% | > 100 nM | < 50% | > 100 nM | D (D (<10 fold)) |  |  | 
C#Cc1ccc(CNC(=O)[C@@H]2C[C@@H](O)CN2C(=O)[C@@H](NC(=O)[C@H]2CCC3(CC2)C[C@H](N2CCN(c4cnc(N5CCN6c7cc(-c8ccccc8O)nnc7NC[C@H]6C5)nc4)CC2)C3)C(C)(C)CCO)c(Cl)c1 (single isomer, unassigned) [I-311] | > 90% | 10 to 50 nM | 70 to 90% | > 100 nM | 70 to 90% | 1 to 10 nM | C (C (10-100 fold)) |  |  | 
C#Cc1ccc(CNC(=O)[C@@H]2C[C@@H](O)CN2C(=O)[C@@H](NC(=O)[C@H]2CCC3(CC2)C[C@H](N2CCN(c4cnc(N5CCN6c7cc(-c8ccccc8O)nnc7NC[C@H]6C5)nc4)CC2)C3)C(C)(C)CCO)c(Cl)c1 (single isomer, unassigned) [I-312] |  | 10 to 50 nM |  | > 100 nM |  | 10 to 100 nM | B (B (>100-500 fold)) | A (A (>90% degradation)) | D (D (<50% degradation)) | B (B (>70-90% degradation))
C#Cc1ccc(CNC(=O)[C@@H]2C[C@@H](O)CN2C(=O)[C@H](NC(=O)N2CC3(CC(N4CCC(c5cnc(N6CCc7[nH]c8nnc(-c9ccccc9O)cc8c7[C@H]6C)nc5)CC4)C3)C2)C(C)(C)CCO)c(Cl)c1 (single isomer, unassigned) [I-316] | < 50% | > 100 nM | < 50% | > 100 nM | < 50% | > 100 nM | C (C (10-100 fold)) |  |  | 
